# Target: T1, human TSHR (Homo sapiens, UniProt P16473)
# T1 construct: expressed in transfected cells
# Test: Antagonist activity using TSH-induced cAMP production in human TSHR-stably expressing CHO cells
# Format: cell-based
# Settings: human TSH final concentration of 50 ng/mL, cAMP production rate
# Procedure: Measurement of antagonist activity using TSH-induced cAMP production in human TSHR-stably expressing CHO cells as an indicator
# The gene sequence (reference number NM_000369.2) of human TSHR was inserted into the multiple cloning site of pcDNA3.1(+). The prepared plasmid vector was introduced into CHO cells using a lipofection method to establish human TSHR-stably expressing CHO cells. The obtained cells were seeded at 5 x 10^4 cells/well in a 96-well poly-D-lysine-coated plate, and cultured in an F12 culture medium containing 10% FBS, 400 µg/mL of G418, 50 U/mL of penicillin and 50 µg/mL of streptomycin under conditions of 37°C and 5% CO2 for 1 day. The culture medium was removed, and the cells were then washed twice with 100 µL of an assay buffer (Hanks' Balanced Salt Solution containing 20 mM HEPES and 1 mM IBMX) per well. 30 µL of an assay buffer containing a test compound was added to the well, and incubation was performed at room temperature for 15 minutes. Then, 30 µL of an assay buffer containing human TSH (a final concentration of 50 ng/mL, R&D Systems, Inc.) was added, and incubation was performed at 37°C for 1 hour. The supernatant was removed, a Lysis and Detection Buffer 2 (Cisbio) was added, and incubation was performed at room temperature for 1 hour to prepare a cell lysate. According to the instruction manual of a cAMP Gs HiRange kit (Cisbio), the cell lysate, d2-labeled cAMP and anti-cAMP Europium Cryptate labeled antibodies (Cisbio) were reacted in a 384-well white microplate. Then, a fluorescence intensity ratio (measurement wavelength 665 nm/620 nm) was measured using a multi-plate reader (PHERAstar FSX, BMG LABTECH Japan). The fluorescence intensity ratio of each sample was converted to a cAMP content using a standard curve. The cAMP content was converted as a percentage of the control value to calculate a cAMP production rate. The cAMP production rate was plotted against the test compound concentration using Prism (Graph Pad Software Inc.) to calculate the IC50 value. In the tables, IC50<3.0 µM was indicated as A, and 3.0 µM≤IC50<30 µM was indicated as B. If activity was observed but the IC50 value could not be calculated, it was indicated as C.
# T1 sequence (P16473 21-764): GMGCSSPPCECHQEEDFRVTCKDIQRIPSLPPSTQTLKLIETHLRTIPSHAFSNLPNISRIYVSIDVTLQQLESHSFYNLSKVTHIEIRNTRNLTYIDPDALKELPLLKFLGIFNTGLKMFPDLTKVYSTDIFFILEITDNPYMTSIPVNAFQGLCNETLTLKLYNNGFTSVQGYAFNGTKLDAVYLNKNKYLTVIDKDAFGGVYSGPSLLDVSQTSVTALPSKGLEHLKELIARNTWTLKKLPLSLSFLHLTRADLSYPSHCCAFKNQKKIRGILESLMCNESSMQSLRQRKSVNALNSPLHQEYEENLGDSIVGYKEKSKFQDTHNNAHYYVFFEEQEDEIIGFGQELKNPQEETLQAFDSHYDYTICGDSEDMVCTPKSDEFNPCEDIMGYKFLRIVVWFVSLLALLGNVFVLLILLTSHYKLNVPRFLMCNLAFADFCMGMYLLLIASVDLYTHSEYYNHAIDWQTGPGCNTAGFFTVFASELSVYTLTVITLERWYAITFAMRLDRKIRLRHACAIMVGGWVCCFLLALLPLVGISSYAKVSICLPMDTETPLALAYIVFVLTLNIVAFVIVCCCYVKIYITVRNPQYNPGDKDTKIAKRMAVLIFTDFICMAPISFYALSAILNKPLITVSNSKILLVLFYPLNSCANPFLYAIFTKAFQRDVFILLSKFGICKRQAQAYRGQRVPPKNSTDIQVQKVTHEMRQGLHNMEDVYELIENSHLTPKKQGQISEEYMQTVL
row,Compound,IC50 [µM]
1,"CN1C(=O)C(C(N)=O)Cc2cc(NC(=O)OC3CCCC3)cc(Oc3ccccc3)c21 (stereo not shown) [Example 1, cyclopentyl (3-carbamoyl-1-methyl-2-oxo-8-phenoxy-1,2,3,4-tetrahydroquinoline-6-yl)carbamate]",3 to 30
2,"CN1C(=O)[C@H](NC(N)=O)Cc2cccc(CCc3ccccc3)c21 [Example 35, (R)-1-(1-methyl-2-oxo-8-phenethyl-1,2,3,4-tetrahydroquinoline-3-yl)urea]",3 to 30
3,"CN1C(=O)C(NC(N)=O)Cc2cccc(C(C)(C)c3ccccc3)c21 (stereo not shown) [Example 14, 1-(1-methyl-2-oxo-8-(2-phenylpropan-2-yl)-1,2,3,4-tetrahydroquinoline-3-yl)urea]",3 to 30
4,"NC(=O)NC1Cc2cccc(Oc3cc(F)ccc3Cl)c2-n2ccnc21 (stereo not shown) [Example 28, 1-(9-(2-chloro-5-fluorophenoxy)-4,5-dihydroimidazo[1,2-a]quinoline-4-yl)urea]",3 to 30
5,"CN1C(=O)[C@H](NC(N)=O)Cc2sc(Br)c(Cc3cc(F)ccc3Cl)c21 [Example 39, (R)-1-(2-bromo-3-(2-chloro-5-fluorobenzyl)-4-methyl-5-oxo-4,5,6,7-tetrahydrothieno[3,2-b]pyridin-6-yl)urea]",< 3
6,"Cc1cnc2n1-c1c(cccc1Oc1cc(F)ccc1Cl)CC2NC(N)=O (stereo not shown) [Example 29, 1-(9-(2-chloro-5-fluorophenoxy)-1-methyl-4,5-dihydroimidazo[1,2-a]quinolin-4-yl)urea]",3 to 30
7,"CC1(c2ccccc2)C(=O)C(C)(C)N2C(=O)[C@H](NC(N)=O)Cc3cccc1c32 (stereo partly drawn) [Example 17, 1-((2R)-5,5,7-trimethyl-3,6-dioxo-7-phenyl-2,3,6,7-tetrahydro-1H,5H-pyrido[3,2,1-ij]quinoline-2-yl)urea]",< 3

# More lines, now with the values ahead:
row,IC50 [µM],Compound
1,< 3,"CN1C(=O)C(NC(N)=O)Cc2cc(NC(=O)OC3CCCC3)cc(Oc3cccc(C(F)(F)F)n3)c21 (stereo not shown) [Example 5, cyclopentyl (1-methyl-2-oxo-8-((6-trifluoromethylpyridin-2-yl)oxy)-3-ureido-1,2,3,4-tetrahydroquinoline-6-yl)carbamate]"
2,< 3,"CC(c1cc(F)ccc1Cl)c1nsc2c1N(C)C(=O)[C@H](NC(N)=O)C2 (stereo partly drawn) [Example 43, 1-((6R)-3-(1-(2-chloro-5-fluorophenyl)ethyl)-4-methyl-5-oxo-4,5,6,7-tetrahydroisothiazolo[4 ,5-b]pyridine-6-yl)urea]"
3,< 3,"CC1(c2ccccc2)CC(C)(C)N2C(=O)[C@H](NC(N)=O)Cc3cccc1c32 (stereo partly drawn) [Example 15, 1-((2R)-5,5,7-trimethyl-3-oxo-7-phenyl-2,3,6,7-tetrahydro-1H,5H-pyrido[3,2,1-ij]quinolin-2-yl)urea]"
4,< 3,"CN1C(=O)[C@H](NC(N)=O)Cc2sc(CO)c(Cc3cc(F)ccc3Cl)c21 [Example 41, (R)-1-(3-(2-chloro-5-fluorobenzyl)-2-(hydroxymethyl)-4-methyl-5-oxo-4,5,6,7-tetrahydrothieno[3,2-b]pyridin-6-yl)urea]"

# System: not given
# Test: not given
# Settings: mice in which a TSH-releasing hormone (TRH) has been administered; cited from earlier work
row,Compound,blood T4 concentration lowering effect
1,COc1ccc(C2Nc3ccccc3C(=O)N2Cc2ccco2)cc1COc1c(C)cc(NC(C)=O)cc1C (stereo not shown) [NCGC00242364],blood T4 concentration lowering effect

# Same assay, conditions: mice in which a thyroid stimulating antibody M22 has been administered; cited from earlier work
row,Compound,blood T4 concentration lowering effect
1,COc1ccc(C2Nc3ccccc3C(=O)N2Cc2ccco2)cc1COc1c(C)cc(NC(C)=O)cc1C (stereo not shown) [NCGC00242364],blood T4 concentration lowering effect

# — EP4818159A1 (Kissei Pharmaceutical Co., Ltd., priority 2023, dated 2025)
